“Also recorded” adds a separate entry of the source.
What was measured:
[1] = system: Human umbilical cord vascular endothelial cells (HUVEC); experiment: Experiment of growth: HUVEC cell number by WST-8 after 48 hrs; type: cell-based; settings: for antagonism of the growth inhibitory effect by D-glucose: co-existence of 20 mM D-glucose; for inhibition at 20000 µM: 20 mM, read-out: inhibition of growth to the control group
Description: Human umbilical cord vascular endothelial cells (HUVEC) were purchased as primary cultured cells from KURABO (Kurabo Co., Osaka, Japan) and the cells up to P8 were used in experiments. The cells were inoculated on a 96-well plate at a rate of 3000 cells/well, and allowed to stand in Humedia EG2 (Kurabo) overnight (37° C., 5% CO2). Next morning, the medium was replaced by 90 μl of 2% FBS-containing Humedia EB2 (Kurabo), to which was then added 10 μl of additive, and after a lapse of 48 hrs the number of cells was counted. No medium was exchanged during this period. In counting, a tetrazolium salt WST-8 was added to each well (0.5 mM), and after 2 hrs the absorbance was measured at 450 nm. The tetrazolium salt added was reduced with an intracellular dehydrogenase to yield formazan depending on the number of cells in the well. In advance, the absorbance at 450 nm was confirmed to show a linearity within the range of 500 to 12000 cells in the well.

[2] = system: HUVEC; experiment: 14C-glucose up-take in vascular endothelial cell; type: cell-based, human; settings: sugars 20 mM (2 mM for 2DG), 48 hours; for effect on the glucose up-take of HUVEC: both culture media ([GLU]=0.1 mM and 4.5 mM), VEGF 10 ng/mL; for effect on the glucose up-take accelerated by VEGF: with VEGF 10 ng/mL
Description: Most of the physiological actions of monosaccharides are likely to be caused by the structural similarity to D-glucose, and one of the mechanisms is considered to be an influence on glucose metabolism. Then, in order to elucidate the influence on metabolism, the effect of HUVEC on the glucose up-take was examined for FRU, ALO, PSI, ALL, 2DG, MAN, and GAL. ^14C-Glucose was added to a culture medium, and the incorporated amount after 48 hours was counted by a scintillation counter. HUVEC was inoculated on a 24-well plate at a rate of 12000 cells/well. The medium was allowed to stand in 400 μL of Humedia EB2+2% FBS overnight. Next day, the medium was replaced by a medium containing ^14C-glucose. The medium used in replacement was the total 400 μL/well of medium containing ^14C-glucose (360 μL)+saline/VEGF (20 μL)+saline/RS (20 μL). The stock solution of ^14C-glucose 100 Bq/μL saline was diluted 10-fold with 2% FBS-containing medium (glucose-free or low glucose) to give a culture medium of 10 Bq/μL. The experiment was carried out on a lower glucose medium (final concentration [GLU]=0.1 mM) and on a high glucose medium ([GLU]=4.5 mM). ^14C-glucose was added at 3600 Bq/well. Further, FRU: D-fructose, ALO: D-allose, PSI: D-psicose, ALL: allitol, 2DG: 2-deoxy glucose, MAN: D-mannose, or GAL: D-galactose was added to the medium as an additive at 20 mM (provided 2 mM for 2DC). Irritation for growth was also carried out with VEGF (10 ng/mL). After a lapse of 48 hours, the well was washed twice with PBS, to which was then added 200 μL of 2% Triton, of which 180 μL was used as a sample for scintillation counter. The incorporation of ^14C-glucose into the HUVEC cells was calculated from the count in each well in the unit of nmol/well and depicted in a graph.

[3] = system: human endothelial cells and fibroblasts; experiment: Experiment of luminal formation: concurrent culture, CD31 staining, area of the lumen; type: cell-based; settings: for effect on the luminal formation: Example 1, 0.1-20 mM; for effect on the luminal formation of HUVEC: Example 2 (36 species), incubation for 10 days; for antagonism of the luminal formation inhibitory effect by D-glucose: co-existence of 20 mM D-glucose; for inhibition of the acceleration of luminal formation by VEGF: with VEGF
Description: Using a concurrent culture system of human endothelial cells and fibroblasts planted on a 24-well plate (Kurabo Co., Osaka, Japan), the culture medium was replaced by culture media containing a variety of additives at the early stage of luminal formation. Every 3 days, the medium was exchanged with the additive; 10 day after incubation, the endothelial cell only was stained by using mouse anti-human CD31 antibody (Kurabo Co., Osaka, Japan), goat anti-mouse IgG AlkP Conjugate (Kurabo Co., Osaka, Japan), and BCPI (5-bromo-4-chloro-3-indolyl phosphate) (Kurabo Co., Osaka, Japan) to photograph. The visualized area of the lumen was measured by means of NIH image software.

[4] = Basic safety tests (mutagenicity, biodegradable test, 3 acute toxicity tests); settings: oral acute toxicity, skin and ophthalmic primary irritation, by a designated organ
Excerpt: The most important and highest hurdle in the development of approved drugs/quasi drugs or foods is to confirm safety of the rare sugar as a new substance. As the most basic safety tests, mutagenicity, biodegradable test and 3 acute toxicity tests (oral acute toxicity test, skin primary irritation test, ophthalmic primary irritation test) are decided. Since rare sugars are monosaccharides naturally occurring in very small quantities, it is necessary to examine exactly, though they are expected to be safe. We requested of a designated organ to examine the basic safety test on 3 species of rare sugars, i.e., D-psicose, D-allose and allitol. As a result, it was confirmed that there was no problem in any of the rare sugars.

[5] = in an aqueous solution; cited from earlier work
[6] = Example 2 (36 species), 48 hours

| Compound | effect on the growth of HUVEC ([1]; Example 1, 0.1-20 mM, 48 hrs) | effect on the growth of HUVEC [1, 6] | antagonism of the growth inhibitory effect by D-glucose [1] | effect on the glucose up-take of HUVEC [2] | effect on the glucose up-take accelerated by VEGF [2] | effect on the luminal formation ([3]; 10 days) | result of the basic safety test [4] | other results |
| --- | --- | --- | --- | --- | --- | --- | --- | --- |
| O=CC[C@@H](O)[C@H](O)[C@H](O)CO [2DG, 2-deoxy-D-glucose] | effect was confirmed | inhibitory effect was observed; also recorded: particularly strong action | no antagonism | inhibitory effect | inhibited | effect was confirmed |  | effect on the growth of HUVEC ([1]; Example 1, 0.1-20 mM, 48 hrs, listed as 2-deoxy-D-glucose): inhibit both; inhibition at 1000 µM ([1]; Homo sapiens, HUVEC, 1 mM, 48 hrs): 70%; effect on the luminal formation ([3]; 10 days, listed as 2-deoxy-D-glucose): inhibit both; effect on the luminal formation of HUVEC [3]: inhibitory effect was observed; also recorded: much stronger action; inhibition at 100 µM ([3]; Homo sapiens, 0.1 mM): 70%; inhibition at 500 µM ([3]; Homo sapiens, 0.5 mM): 95%; antagonism of the luminal formation inhibitory effect by D-glucose [3]: antagonized; inhibition of the acceleration of luminal formation by VEGF [3]: inhibit the acceleration by VEGF |
| O=C[C@H](O)[C@H](O)[C@H](O)[C@H](O)CO [A, D-allose] | effect was confirmed | inhibitory effect was observed | antagonized | inhibitory effect | inhibited | effect was confirmed | no problem | inhibition at 20000 µM ([1]; Homo sapiens, HUVEC, 48 hrs): 40 to 80%; effect on the luminal formation of HUVEC [3]: inhibitory effect was observed; inhibition at 20000 µM ([3]; Homo sapiens, 20 mM): 50 to 80%; antagonism of the luminal formation inhibitory effect by D-glucose [3]: no apparent effect; inhibition of the acceleration of luminal formation by VEGF [3]: inhibit the acceleration by VEGF |
| O=C[C@H](O)[C@@H](O)[C@H](O)[C@H](O)CO [D-glucose] | no difference; also recorded: does not inhibit |  |  |  |  | does not inhibit |  | share of the chair type C1 [5]: ~100% |
| O=C[C@@H](O)[C@@H](O)[C@H](O)[C@H](O)CO [MAN, D-mannose] | effect was confirmed; also recorded: inhibitory effect for growth | inhibitory effect was observed | antagonized | inhibitory effect | inhibited | no influence |  | inhibition at 20000 µM ([1]; Homo sapiens, HUVEC, 48 hrs): 40 to 80% |
| O=C(CO)[C@H](O)[C@H](O)[C@H](O)CO [PSI, D-psicose] |  | no remarkable effect |  |  |  |  | no problem |  |
| OC[C@@H](O)[C@@H](O)[C@@H](O)[C@@H](O)CO [allitol] |  |  |  |  |  |  | no problem |  |
| VEGF |  |  |  | accelerated |  |  |  | cell number in comparison with the control group ([1]; 10 ng/mL, 48 hrs): 1.7±0.5 times; luminal area in comparison to the control group ([3]; 10 ng/mL, 10 days): 2.8±0.6 times |
